Data reported in patent US12655116B2, “Substituted isophthalic acid diamides” (Bayer Aktiengesellschaft, priority 2020, dated 2026).

Tests used:
VIOTR [1] = assay: Post-emergence herbicidal action against VIOTR; assay type: in vivo, Viola tricolor; conditions: Viola tricolor, 504 h
Outline: (§1)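 Greenhouse pot plants in sandy loam were sprayed at the one-leaf stage, 2 to 3 weeks after sowing, with WP or EC formulations as aqueous suspension or emulsion (600 to 800 l/ha water, 0.2% wetting agent). About 3 weeks later, damage was scored visually against untreated controls as % action (100% = dead, 0% = like control).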

STEME = assay: Pre-emergence herbicidal action against STEME; assay type: in vivo, Stellaria media; conditions: Stellaria media, 504 h; for pest or weed control at 80 g/ha: dosage 80 g/ha; for pest or weed control at 320 g/ha: dosage 320 g/ha
Outline: (§2)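 Visual rating at 3 weeks vs untreated pots; 0–100% scale, 100% = plants died. Treatment: aqueous WP/EC spray onto covering soil, 600–800 l/ha, 0.2% wetter, seeds in sandy loam.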

SETVI [2] = assay: Post-emergence herbicidal action against SETVI; assay type: in vivo, Setaria viridis; conditions: Setaria viridis, 504 h; for pest or weed control at 20 g/ha: dosage 20 g/ha; for pest or weed control at 80 g/ha: dosage 80 g/ha
Outline: as §1

HORMU [3] = assay: Pre-emergence herbicidal action against HORMU; assay type: in vivo, Hordeum murinum; conditions: Hordeum murinum, 504 h, pre-emergence
Outline: as §2

HORMU [4] = assay: Post-emergence herbicidal action against HORMU; assay type: in vivo, Hordeum murinum; conditions: Hordeum murinum, 504 h; for pest or weed control at 20 g/ha: dosage 20 g/ha; for pest or weed control at 80 g/ha: dosage 80 g/ha
Outline: as §1

ABUTH = assay: Pre-emergence herbicidal action against ABUTH; assay type: in vivo, Abutilon theophrasti; conditions: Abutilon theophrasti, 504 h; for pest or weed control at 80 g/ha: scored visually after 3 weeks vs untreated controls (100% = plants have died, 0% = like control plants); for pest or weed control at 320 g/ha: Dosage: 320 g/ha, scored visually after 3 weeks; for pest or weed control at 320 g/ha / pest or weed control at 20 g/ha: 100% = plants have died, 0% = like control plants; for pest or weed control at 20 g/ha: dosage 20 g/ha, scored visually after 3 weeks vs untreated controls, read-out: Pre-emergence action against ABUTH (herbicidal activity in percent)
Outline: as §2

MATIN [5] = assay: Pre-emergence herbicidal action against MATIN; assay type: in vivo, Matricaria inodora; conditions: Tripleurospermum inodorum, 504 h; for pest or weed control at 80 g/ha: dosage 80 g/ha; for pest or weed control at 320 g/ha: dosage 320 g/ha
Outline: as §2

VERPE [6] = assay: Pre-emergence herbicidal action against VERPE; assay type: in vivo, Veronica persica; conditions: Veronica persica, 504 h; for pest or weed control at 80 g/ha: dosage 80 g/ha; for pest or weed control at 320 g/ha: dosage 320 g/ha
Outline: as §2

LOLRI [7] = assay: Pre-emergence herbicidal action against LOLRI; assay type: in vivo, Lolium rigidum; conditions: Lolium rigidum, 504 h
Outline: as §2

ECHCG [8] = assay: Post-emergence herbicidal action against ECHCG; assay type: in vivo, Echinochloa crus-galli; conditions: Echinochloa crus-galli, 504 h; for pest or weed control at 20 g/ha: dosage 20 g/ha; for pest or weed control at 80 g/ha: dosage 80 g/ha
Outline: as §1

LOLRI [9] = assay: Post-emergence herbicidal action against LOLRI; assay type: in vivo, Lolium rigidum; conditions: Lolium rigidum, 504 h, dosage 80 g/ha
Outline: as §1

ALOMY [10] = assay: Post-emergence herbicidal action against ALOMY; assay type: in vivo, Alopecurus myosuroides; conditions: Alopecurus myosuroides, 504 h, visual assessment about 3 weeks after treatment vs untreated controls; for pest or weed control at 80 g/ha: dosage 80 g/ha; for pest or weed control at 20 g/ha: dosage 20 g/ha
Outline: as §1

PHBPU = assay: Post-emergence herbicidal action against PHBPU; assay type: in vivo, Pharbitis purpurea; conditions: Ipomoea purpurea, 504 h; for pest or weed control at 80 g/ha: dosage 80 g/ha
Outline: as §1

ALOMY [11] = assay: Pre-emergence herbicidal action against ALOMY; assay type: in vivo, Alopecurus myosuroides; conditions: Alopecurus myosuroides, pre-emergence, 504 h; for pest or weed control at 80 g/ha: scored visually after 3 weeks vs untreated controls (100% = plants have died, 0% = like control plants)
Outline: as §2

POLCO [12] = assay: Pre-emergence herbicidal action against POLCO; assay type: in vivo, Polygonum convolvulus; conditions: Fallopia convolvulus, 504 h; for pest or weed control at 320 g/ha: dosage 320 g/ha
Outline: as §2

VIOTR [13] = assay: Pre-emergence herbicidal action against VIOTR; assay type: in vivo, Viola tricolor; conditions: Viola tricolor, 504 h; for pest or weed control at 80 g/ha: dosage 80 g/ha; for pest or weed control at 320 g/ha: dosage 320 g/ha
Outline: as §2

AMARE = assay: Post-emergence herbicidal action against AMARE; assay type: in vivo, Amaranthus retroflexus; conditions: Amaranthus retroflexus, 504 h, visual assessment about 3 weeks after treatment, 100% = plants have died, 0% = like control plants
Outline: as §1

SETVI [14] = assay: Pre-emergence herbicidal action against SETVI; assay type: in vivo, Setaria viridis; conditions: Setaria viridis, 504 h; for pest or weed control at 80 g/ha: dosage 80 g/ha; for pest or weed control at 320 g/ha: dosage 320 g/ha
Outline: as §2

AVEFA = assay: Post-emergence herbicidal action against AVEFA; assay type: in vivo, Avena fatua; conditions: Avena fatua, 504 h, visual assessment about 3 weeks after treatment, 100% = plants have died, 0% = like control plants
Outline: as §1

VERPE [15] = assay: Post-emergence herbicidal action against VERPE; assay type: in vivo, Veronica persica; conditions: Veronica persica, 504 h
Outline: as §1

ECHCG [16] = assay: Pre-emergence herbicidal action against ECHCG; assay type: in vivo, Echinochloa crus-galli; conditions: Echinochloa crus-galli, 504 h
Outline: as §2

MATIN [17] = assay: Post-emergence herbicidal action against MATIN; assay type: in vivo, Matricaria inodora; conditions: Tripleurospermum inodorum, 504 h, dosage 20 g/ha
Outline: as §1

POLCO [18] = assay: Post-emergence herbicidal action against POLCO; assay type: in vivo, Polygonum convolvulus; conditions: Fallopia convolvulus, 504 h, dosage 20 g/ha
Outline: as §1

[19] = scored visually after 3 weeks, 100% = plants have died, 0% = like control plants

SMILES	pest or weed control at 80 g/ha (VIOTR [1]) [%]	pest or weed control at 80 g/ha (STEME) [%]	pest or weed control at 320 g/ha (STEME) [%]	pest or weed control at 20 g/ha (SETVI [2]) [%]	pest or weed control at 80 g/ha (SETVI [2]) [%]	pest or weed control at 320 g/ha (HORMU [3]) [%]	pest or weed control at 20 g/ha (HORMU [4]) [%]	pest or weed control at 80 g/ha (HORMU [4]) [%]	pest or weed control at 80 g/ha (ABUTH) [%]	pest or weed control at 320 g/ha (ABUTH) [%]	pest or weed control at 20 g/ha (ABUTH) [%]	pest or weed control at 80 g/ha (MATIN [5]) [%]	pest or weed control at 320 g/ha (MATIN [5]) [%]	pest or weed control at 80 g/ha (VERPE [6]) [%]	pest or weed control at 20 g/ha (ECHCG [8]) [%]	pest or weed control at 80 g/ha (VIOTR [13]) [%]	pest or weed control at 20 g/ha (AMARE) [%]	pest or weed control at 80 g/ha (SETVI [14]) [%]	pest or weed control at 20 g/ha (AVEFA) [%]	pest or weed control at 80 g/ha (ECHCG [16]) [%]	also measured
Cn1nnnc1NC(=O)c1ccc(C(F)(F)F)c(C(N)=O)c1Cl [Example 1-338]	90	90	90	80	100	100	80	90	100	100	80	80	100	90	90	80	90	90	80	90	pest or weed control at 320 g/ha (VERPE [6]): 100%; pest or weed control at 320 g/ha (LOLRI [7]): 90%; pest or weed control at 80 g/ha (ECHCG [8]): 90%; pest or weed control at 80 g/ha (LOLRI [9]): 80%; pest or weed control at 80 g/ha (ALOMY [10]): 100%; pest or weed control at 80 g/ha (PHBPU): 90%; pest or weed control at 320 g/ha (ALOMY [11]; [19]): 100%; pest or weed control at 320 g/ha (POLCO [12]): 80%; pest or weed control at 320 g/ha (VIOTR [13]): 100%; pest or weed control at 80 g/ha (AMARE): 100%; pest or weed control at 320 g/ha (SETVI [14]): 100%; pest or weed control at 80 g/ha (AVEFA): 100%; pest or weed control at 80 g/ha (VERPE [15]): 100%; pest or weed control at 320 g/ha (ECHCG [16]): 100%
CCn1nnnc1NC(=O)c1ccc(Cl)c(C(=O)NC2CC2)c1Cl [Example 2-173]	–	100	–	100	–	–	100	–	100	–	90	100	–	80	90	100	100	100	100	100	pest or weed control at 20 g/ha (VIOTR [1]): 100%; pest or weed control at 20 g/ha (STEME; dosage 20 g/ha): 100%; pest or weed control at 5 g/ha (SETVI [2]; dosage 5 g/ha): 100%; pest or weed control at 80 g/ha (HORMU [3]): 100%; pest or weed control at 20 g/ha (MATIN [5]; dosage 20 g/ha): 100%; pest or weed control at 80 g/ha (LOLRI [7]; 80 g/ha): 90%; pest or weed control at 5 g/ha (ECHCG [8]; dosage 5 g/ha): 80%; pest or weed control at 20 g/ha (ALOMY [10]): 100%; pest or weed control at 5 g/ha (PHBPU; dosage 5 g/ha): 80%; pest or weed control at 20 g/ha (PHBPU; dosage 20 g/ha): 90%; pest or weed control at 80 g/ha (ALOMY [11]): 100%; pest or weed control at 20 g/ha (ALOMY [11]; 20 g/ha, scored visually after 3 weeks, 100% = plants have died, 0% = like control plants): 100%; pest or weed control at 20 g/ha (POLCO [12]; dosage 20 g/ha): 90%; pest or weed control at 80 g/ha (POLCO [12]; dosage 80 g/ha): 100%; pest or weed control at 20 g/ha (MATIN [17]): 100%; pest or weed control at 20 g/ha (VERPE [15]): 80%; pest or weed control at 20 g/ha (POLCO [18]): 90%
CCn1nnnc1NC(=O)c1ccc(C(F)(F)F)c(C(N)=O)c1Cl [Example 2-338]	100	90	100	80	100	100	–	100	100	100	90	90	100	100	80	100	100	90	80	90	pest or weed control at 20 g/ha (VIOTR [1]): 100%; pest or weed control at 80 g/ha (HORMU [3]): 80%; pest or weed control at 320 g/ha (VERPE [6]): 100%; pest or weed control at 320 g/ha (LOLRI [7]): 100%; pest or weed control at 80 g/ha (ECHCG [8]): 100%; pest or weed control at 80 g/ha (LOLRI [9]): 90%; pest or weed control at 20 g/ha (ALOMY [10]): 80%; pest or weed control at 80 g/ha (ALOMY [10]): 100%; pest or weed control at 80 g/ha (PHBPU): 90%; pest or weed control at 80 g/ha (ALOMY [11]): 90%; pest or weed control at 320 g/ha (ALOMY [11]; [19]): 100%; pest or weed control at 320 g/ha (POLCO [12]): 90%; pest or weed control at 320 g/ha (VIOTR [13]): 100%; pest or weed control at 80 g/ha (AMARE): 100%; pest or weed control at 320 g/ha (SETVI [14]): 100%; pest or weed control at 80 g/ha (AVEFA): 100%; pest or weed control at 20 g/ha (VERPE [15]): 90%; pest or weed control at 80 g/ha (VERPE [15]): 100%; pest or weed control at 320 g/ha (ECHCG [16]): 100%
